For 21 compounds, GI50 and TGI results are on record in PubChem BioAssay (NCI).

Where “and” joins values, the source holds several entries; their conditions need not be identical. Equal values may be shown once.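 Grown in 96-well plates, cells were treated for 48 hours with each compound at five concentrations. Insufficient inhibition: endpoint recorded as highest concentration tested. At the GI50, growth is halved. The concentration for full growth arrest is given as TGI.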

Test systems include BT-549 breast; DU-145 prostate; MDA-MB-231 breast; MDA-N; KM20L2 colon.
Experiment in all cases: NCI tumour cell line growth inhibition, 48 h

As to `CC1OC(OC2C(OC3CCC4(C)C(CCC5(C)C4CC=C4C6CC(C)(C)CCC6(CO)C(O)CC45C)C3(C)C)OC(C(=O)O)C(OC3OC(COC4OC(CO)C(O)C(O)C4O)C(O)C(O)C3O)C2O)C(O)C(O)C1O` (centres undefined), the GI50 was 1.15 µM in the assay on BT-549 breast, 13.4 µM in the assay on DU-145 prostate and 10.8 µM with MDA-MB-231 breast. Moreover, the TGI in the assay on BT-549 breast was 2.49 µM; in the assay on DU-145 prostate it was 25.1 µM; with MDA-MB-231 breast, 21.8 µM.
Take `O=[N+]([O-])c1ccc([I+]c2ccccc2)cc1`: the GI50 with BT-549 breast is 1.63 µM; in the assay with DU-145 prostate, 2.25 µM; with MDA-MB-231 breast, 2.1 µM. Besides, the TGI in the assay on BT-549 breast was 8.12 µM and 3.09 µM; in the assay on DU-145 prostate, 25 µM and 6.35 µM; in the assay on MDA-MB-231 breast it was 12.9 µM and 4.9 µM; with MDA-N, 20.9 µM.
Regarding `COc1ccc(C2=NN(c3ccc(S(N)(=O)=O)cc3)C(c3ccc(Cl)cc3)C2)c(O)c1` (centres undefined), the GI50 with BT-549 breast is 4.07 µM; in the assay on DU-145 prostate it was 5.88 µM; in the assay with MDA-MB-231 breast it was 9.89 µM. The TGI in the assay on BT-549 breast is 13.6 µM; with DU-145 prostate it was 20.7 µM; in the assay on MDA-MB-231 breast it was 27.4 µM.
As to `C/C=C(\C)C(=O)O[C@@H]1C=CC(=O)O[C@H]1COC(=O)[C@H](C)O`, the figures for the GI50 in the assay on DU-145 prostate and with MDA-MB-231 breast were 10.8 µM and 13.7 µM, respectively. For the same compound, the results for the TGI in the assay with DU-145 prostate and in the assay with MDA-MB-231 breast were 31.8 µM and 29.1 µM, respectively.
With `COc1cccc(C2C3=C(COC3=O)N(CCO)c3cc4c(cc32)CCC4)c1` (centres undefined), the GI50 with BT-549 breast is 0.0819 µM; in the assay on DU-145 prostate, 0.0884 µM; in the assay on MDA-MB-231 breast, 0.142 µM. Further, the TGI with BT-549 breast is 1.19 µM; with DU-145 prostate, 0.321 µM; with MDA-MB-231 breast, 1.07 µM.
In the case of `O=C(O)Cc1ccccc1`, the TGI in the assay on BT-549 breast was over 2000 µM; with DU-145 prostate, over 1000 µM; in the assay with MDA-MB-231 breast it was over 2000 µM; in the assay with MDA-N it was over 2000 µM. Further, the GI50 in the assay on DU-145 prostate, with MDA-MB-231 breast and in the assay with MDA-N was over 1000 µM in each case.
On to `O=C(/C=C/c1cccnc1)/C=C/c1cccnc1`, for which the GI50 is 1.73 µM in the assay on BT-549 breast, 2.57 µM with DU-145 prostate and 2.05 µM in the assay with MDA-MB-231 breast. The TGI in the assay on BT-549 breast turned out to be 4.62 µM; in the assay on DU-145 prostate, 6.45 µM; with MDA-MB-231 breast, 5.8 µM.
Turning to `COc1ccc2c(c1)C(=O)/C(=C/c1ccc(OCC(=O)c3ccc(Cl)cc3)cc1)O2`, the values for the GI50 with BT-549 breast, in the assay with DU-145 prostate and in the assay on MDA-MB-231 breast were 18.4 µM, 16.4 µM and 17 µM, respectively. Also, the TGI in the assay on BT-549 breast is 59.1 µM; in the assay with DU-145 prostate, 29.9 µM; with MDA-MB-231 breast, 89.7 µM.
Regarding `O=C1/C(=C\c2ccccc2)CN(C(=O)c2ccccc2F)C/C1=C\c1ccccc1`, the GI50 was 1.86 µM in the assay with BT-549 breast, 2.73 µM in the assay with DU-145 prostate and 2 µM in the assay on MDA-MB-231 breast. For the same compound, the TGI was found to be 3.58 µM in the assay on BT-549 breast, 6.41 µM with DU-145 prostate and 4.06 µM with MDA-MB-231 breast.
`C/C(=N\NC(=S)Nc1ccccc1)c1ccccn1`: the GI50 was 1.87 µM with BT-549 breast, 0.746 µM with DU-145 prostate and 0.0309 µM in the assay on MDA-MB-231 breast. For the same compound, the TGI came out at 13.9 µM in the assay on BT-549 breast, 3.03 µM in the assay with DU-145 prostate and 2.61 µM in the assay on MDA-MB-231 breast.
As to `CC(=O)NNc1nc(C)c(C(/C=C/c2ccc3c(c2)OCO3)=N/NC(=O)c2ccncc2)s1`, the TGI in the assay on BT-549 breast, in the assay with MDA-MB-231 breast and with MDA-N was over 100 µM in each case.
On to `COc1ccc(C(NCCNC(c2ccc(OC)c(OC)c2)c2cc3c(cc2O)OCO3)c2cc3c(cc2O)OCO3)cc1OC` (centres undefined), for which the TGI in the assay with BT-549 breast turned out to be 6.22 µM; in the assay on DU-145 prostate it was 8.51 µM; with MDA-MB-231 breast, 8.14 µM; in the assay on MDA-N, 3.58 µM.
In the assay on KM20L2 colon, `COC(=O)CC(CC(=O)C(=O)OC)C(=O)OC` (centres undefined) had a TGI of over 100 µM.
As for `C[C@@H](Oc1cc(-n2cnc3ccc(OCC4CCN(C)CC4)cc32)sc1C(N)=O)c1ccccc1C(F)(F)F`, the GI50 with BT-549 breast was 1.37 µM; with DU-145 prostate, 0.0643 µM; with MDA-MB-231 breast it was 0.144 µM. Also, the TGI was 4.75 µM in the assay on BT-549 breast, 0.246 µM in the assay with DU-145 prostate and 1.98 µM with MDA-MB-231 breast.
Turning to `CC(=O)C(CN1CCOCC1)C(c1ccccc1)c1c(O)c2ccccc2oc1=O` (centres undefined), the TGI with BT-549 breast, in the assay with DU-145 prostate, with MDA-MB-231 breast and in the assay with MDA-N was over 100 µM in each case.
On to `C#CCSc1nnnn1-c1ccc(Br)c(C)c1`, for which the GI50 in the assay with BT-549 breast is 48.7 µM; in the assay with DU-145 prostate, 16.6 µM; in the assay on MDA-MB-231 breast, 35.8 µM. Further, the TGI in the assay on BT-549 breast was over 100 µM; in the assay with DU-145 prostate it was 47.5 µM; with MDA-MB-231 breast, over 100 µM.
Regarding `c1ccc(CNc2nc(Nc3ccc(-c4nc5ccccc5[nH]4)cc3)c3cn[nH]c3n2)cc1`, the GI50 in the assay with BT-549 breast was 2.03 µM; in the assay on DU-145 prostate it was 3.33 µM; in the assay on MDA-MB-231 breast it was 2.11 µM. In addition, the figures for the TGI with BT-549 breast, in the assay on DU-145 prostate and with MDA-MB-231 breast were 5.27 µM, 12.5 µM and 4.97 µM, respectively.
With `COc1cc(-c2cn(-c3ccc(Cl)cc3)c(=O)n2-c2ccccc2)cc(OC)c1OC`, the figures for the GI50 in the assay with BT-549 breast, with DU-145 prostate and in the assay on MDA-MB-231 breast were over 92.1 µM, over 100 µM and 32.9 µM, respectively. The TGI with BT-549 breast, in the assay on DU-145 prostate and in the assay with MDA-MB-231 breast was over 100 µM in each case.
As to `CC[C@]12C=CCN3CC[C@]4(C(=C(C(=O)OC)C1)Nc1ccccc14)[C@@H]32`, the GI50 is 8.71 µM in the assay with BT-549 breast, 3.81 µM in the assay on DU-145 prostate and 3.19 µM in the assay with MDA-MB-231 breast. The TGI with BT-549 breast was determined as 21.6 µM; in the assay on DU-145 prostate, 14.5 µM; in the assay on MDA-MB-231 breast, 13.3 µM.
For the compound `CCN(CC)c1ccc(/C=C/C2=[N+](C)c3ccccc3C2(C)C)cc1`, the results for the GI50 with BT-549 breast, in the assay with DU-145 prostate and in the assay with MDA-MB-231 breast were 0.226 µM, 0.492 µM and 0.701 µM, respectively. Besides, the TGI in the assay on BT-549 breast was determined as 1.96 µM; with DU-145 prostate, 19 µM; with MDA-MB-231 breast it was 6.48 µM.
With `Cc1nc(N=C(N)N)nc2ccc3ccccc3c12`, the GI50 was 2.67 µM in the assay with BT-549 breast, 1.53 µM in the assay with DU-145 prostate and 1.25 µM with MDA-MB-231 breast. Besides, the TGI turned out to be 7.96 µM in the assay with BT-549 breast, 5.31 µM in the assay on DU-145 prostate and 3.2 µM in the assay on MDA-MB-231 breast.
